The values that follow come from US20050063956A1, “Method and device for attracting insects” (Colorado State University Research Foundation, priority 1998, published 2005).

Molecules are shown by their SMILES. “Also recorded” adds a separate entry of the source.

Experiment [1] concerns Reticulitermes virginicus. Nature of the experiment: T-tube choice-test behavioral bioassay with CO2. The settings on record: in vivo. The procedure: (§1) Behavioral bioassay apparatus: The choice-test bioassay apparatus was constructed from a glass T-tube (5 mm inside diameter, 5 mm stem, with each branch 4.5 cm long). Each branch of the ‘T’ was bent downward (2.5 cm from the junction of the ‘T’) at a 45° angle to form a pitfall trap. A 5 mm NMR cap (cat. no. 100-0050, Drummond Scientific, Broomall, Pa.) with a 1 mm pinhole in it was firmly pushed over the end of each bent branch. A 25 cm length of Teflon tubing (0.8 mm inside diameter) was inserted 3 mm into the hole in each NMR cap and the other end of the tubing was connected to a 35 ml polyethylene syringe (cat. no. 106-0490, Sherwood Medical, St. Louis, Mo.). The two 35-ml syringes were connected to a syringe pump which was adjusted to provide an airflow of 1 ml per min into each choice arm of the bioassay apparatus.
(§2) Mixtures of CO2 and ambient air were tested to determine the termite response to a range of CO2 concentrations. […] The CO2 concentration of the syringes was determined by using GC-MS-SIM analysis (see below) before each bioassay. […]
(§3) Procedure: For bioassays, termite workers were collected from plastic tubs by using a camel's hair brush and were placed into a holding container constructed from a 3 cm length of Teflon tubing (8 mm inside diameter). […] Bioassays were conducted for 15 min, after which the number of termites in each pitfall was recorded. […]

For a further experiment, the system named is Reticulitermes flavipes. Put plainly: T-tube choice-test behavioral bioassay with CO2. The settings on record: in vivo. The procedure: as §1, §2, §3
A further experiment has as its system Reticulitermes tibialis. Nature of the experiment: T-tube choice-test behavioral bioassay with CO2. It is filed as in vivo. The procedure: as §1, §2, §3
The next experiment has as its system wireworm larvae. The settings on record: in vivo; cited from earlier work.

As to `O=C=O` [CO2, carbon dioxide], the “CO2 concentration of best attraction” value in experiment [1] worked out at 10 mmol per mol; in the experiment with Reticulitermes flavipes it was 10 mmol per mol; in the experiment with Reticulitermes tibialis (in vivo) it was 5 mmol per mol. In addition, the “termite choice, CO2 side versus ambient air control side” value in the experiment with Reticulitermes tibialis (5 mmol/mol CO2 versus ambient air, 15 min) is “significantly greater than the number that moved to the control side; also recorded: chose the mmol/mol CO2 side significantly more often; also recorded: Significantly more termites (p<0.05) were attracted to the side containing 5 mmol/mol CO2 than to the control side”. Moreover, the “smallest CO2 difference responded to” value in the experiment on wireworm larvae is reported as 0.02%.
